According to US8519149B2, “Tricyclic compounds as mPGES-1 inhibitors” (Glenmark Pharmaceuticals S.A., priority 2010, dated 2013):

Target: T1, Recombinant human mPGES-1 (Homo sapiens, UniProt O14684)
T1 sequence (O14684 1-152): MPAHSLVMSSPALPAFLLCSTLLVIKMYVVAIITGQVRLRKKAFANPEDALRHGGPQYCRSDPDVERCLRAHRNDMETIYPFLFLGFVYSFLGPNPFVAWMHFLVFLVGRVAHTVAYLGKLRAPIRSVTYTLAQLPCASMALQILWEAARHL
Assay: In-vitro mPGES-1 enzyme inhibition assay (PGE2 formation from PGH2, HTRF detection)
Format: biochemical
Details: for inhibition at 1 µM: 1 μM test compound, read-out: Percentage inhibition at 1 μM; for inhibition at 1 µM / inhibition at 10 µM: recombinant human mPGES-1 microsomal fraction; for inhibition at 10 µM: 10 μM test compound, read-out: Percentage inhibition at 10 μM; for IC50: class symbols, selected examples
In short: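 Crude microsomal fractions containing recombinant human mPGES-1 (40-60 μg/mL protein) convert PGH2 to PGE2 in the presence of reduced glutathione, with 0.5% final DMSO. Reaction stopped with stannous chloride, and PGE2 measured by anti-PGE2 antibody (HTRF) detection. IC50 by nonlinear regression of % inhibition versus uninhibited enzyme control.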

inhibition at 1 µM [%] | inhibition at 10 µM [%] | IC50 [nM] | Structure (SMILES)
95.1 | 100 | < 50 | Cc1cccc(Cl)c1Nc1nc2cc(C(=O)Nc3ccc(F)c(F)c3F)c3c(c2[nH]1)CC(C)(C)O3 [Example-202, 2-((2-Chloro-6-methylphenyl)amino)-7,7-dimethyl-N-(2,3,4-trifluorophenyl)-7,8-dihydro-1H-benzofuro[4,5-d]imidazole-5-carboxamide]
100 | 94.8 | < 50 | CC1(C)Cc2c(c(C(=O)Nc3cc(C4CC4)ccc3F)cc3nc(Nc4c(Cl)cncc4Cl)[nH]c23)O1 [Example-203, N-(5-Cyclopropyl-2-fluorophenyl)-2-((3,5-dichloropyridin-4-yl)amino)-7,7-dimethyl-7,8-dihydro-1H-benzofuro[4,5-d]imidazole-5-carboxamide]
98 | 100 | < 50 | Cc1cccc(Cl)c1Nc1nc2cc(C(=O)Nc3ncc(Cl)cc3F)c3c(c2[nH]1)CC(C)(C)O3 [Example-204, N-(5-Chloro-3-fluoropyridin-2-yl)-2-((2-chloro-6-methylphenyl)amino)-7,7-dimethyl-7,8-dihydro-1H-benzofuro[4,5-d]imidazole-5-carboxamide]
99.9 | 100 | < 50 | CC1(C)Cc2c(c(C(=O)Nc3ncc(Cl)cc3F)cc3nc(Nc4c(Cl)cccc4Cl)[nH]c23)O1 [Example-205, N-(5-Chloro-3-fluoropyridin-2-yl)-2-((2,6-dichlorophenyl)amino)-7,7-dimethyl-7,8-dihydro-1H-benzofuro[4,5-d]imidazole-5-carboxamide]
95.1 | 98.8 | < 50 | CC1(C)Cc2c(c(C(=O)Nc3ccc(F)c(F)c3F)cc3nc(Nc4c(Cl)cncc4Cl)[nH]c23)O1 [Example-212, 2-((3,5-Dichloropyridin-4-yl)amino)-7,7-dimethyl-N-(2,3,4-trifluorophenyl)-7,8-dihydro-1H-benzofuro[4,5-d]imidazole-5-carboxamide]
96.3 | 97.3 | – | Cn1c(Nc2c(Cl)cncc2Cl)nc2cc(C(=O)Nc3ccc(F)c(C(F)(F)F)c3)c3c(c21)CC(C)(C)O3 [Example-213, 2-((3,5-Dichloropyridin-4-yl)amino)-N-(4-fluoro-3-(trifluoromethyl)phenyl)-1,7,7-trimethyl-7,8-dihydro-1H-benzofuro[4,5-d]imidazole-5-carboxamide]
98.4 | 96.5 | – | Cn1c(Nc2c(Cl)cncc2Cl)nc2cc(C(=O)Nc3cccc(C(F)(F)F)c3)c3c(c21)CC(C)(C)O3 [Example-214, 2-((3,5-Dichloropyridin-4-yl)amino)-1,7,7-trimethyl-N-(3-(trifluoromethyl)phenyl)-7,8-dihydro-1H-benzofuro[4,5-d]imidazole-5-carboxamide]
96.3 | 94.1 | – | Cn1c(Nc2c(Cl)cncc2Cl)nc2cc(C(=O)Nc3ccc(C(F)(F)F)cc3)c3c(c21)CC(C)(C)O3 [Example-215, 2-((3,5-dichloropyridin-4-yl)amino)-1,7,7-trimethyl-N-(4-(trifluoromethyl)phenyl)-7,8-dihydro-1H-benzofuro[4,5-d]imidazole-5-carboxamide]
96.5 | 96.4 | – | Cn1c(Nc2c(Cl)cncc2Cl)nc2cc(C(=O)Nc3ccc(C4CC4)cc3)c3c(c21)CC(C)(C)O3 [Example-216, N-(4-Cyclopropylphenyl)-2-((3,5-dichloropyridin-4-yl)amino)-1,7,7-trimethyl-7,8-dihydro-1H-benzofuro[4,5-d]imidazole-5-carboxamide]
96.2 | 99.9 | – | Cn1c(Nc2c(Cl)cncc2Cl)nc2cc(C(=O)Nc3cc(C4CC4)ccc3F)c3c(c21)CC(C)(C)O3 [Example-217, N-(5-Cyclopropyl-2-fluorophenyl)-2-((3,5-dichloropyridin-4-yl)amino)-1,7,7-trimethyl-7,8-dihydro-1H-benzofuro[4,5-d]imidazole-5-carboxamide]
99.4 | 100 | – | Cn1c(Nc2c(Cl)cncc2Cl)nc2cc(C(=O)Nc3cc(C(F)(F)F)ccc3F)c3c(c21)CC(C)(C)O3 [Example-218, 2-((3,5-Dichloropyridin-4-yl)amino)-N-(2-fluoro-5-(trifluoromethyl)phenyl)-1,7,7-trimethyl-7,8-dihydro-1H-benzofuro[4,5-d]imidazole-5-carboxamide]
97.8 | 98.5 | – | Cn1c(Nc2c(Cl)cncc2Cl)nc2cc(C(=O)Nc3ccc(C(F)(F)F)cn3)c3c(c21)CC(C)(C)O3 [Example-219, 2-((3,5-Dichloropyridin-4-yl)amino)-1,7,7-trimethyl-N-(5-(trifluoromethyl)pyridin-2-yl)-7,8-dihydro-1H-benzofuro[4,5-d]imidazole-5-carboxamide]
81.5 | 99.8 | – | Cn1c(Nc2c(Cl)cncc2Cl)nc2cc(C(=O)NCC3CC3)c3c(c21)CC(C)(C)O3 [Example-220, N-(Cyclopropylmethyl)-2-((3,5-dichloropyridin-4-yl)amino)-1,7,7-trimethyl-7,8-dihydro-1H-benzofuro[4,5-d]imidazole-5-carboxamide]
